Data on 14 molecules can be found in publication PMC3720808 (European journal of medicinal chemistry, 2013).

Structures are written as SMILES. Where two headings read alike, the source gives them in different places.

One data set addresses hERG channel (Homo sapiens, UniProt Q12809). In words: hERG PatchXpress assay / hERG binding assay. The conditions noted are these: read-out: hERG EC50.
A further data set deals with T1, Mer (Homo sapiens, UniProt Q12866).
T1 sequence (Q12866 21-999): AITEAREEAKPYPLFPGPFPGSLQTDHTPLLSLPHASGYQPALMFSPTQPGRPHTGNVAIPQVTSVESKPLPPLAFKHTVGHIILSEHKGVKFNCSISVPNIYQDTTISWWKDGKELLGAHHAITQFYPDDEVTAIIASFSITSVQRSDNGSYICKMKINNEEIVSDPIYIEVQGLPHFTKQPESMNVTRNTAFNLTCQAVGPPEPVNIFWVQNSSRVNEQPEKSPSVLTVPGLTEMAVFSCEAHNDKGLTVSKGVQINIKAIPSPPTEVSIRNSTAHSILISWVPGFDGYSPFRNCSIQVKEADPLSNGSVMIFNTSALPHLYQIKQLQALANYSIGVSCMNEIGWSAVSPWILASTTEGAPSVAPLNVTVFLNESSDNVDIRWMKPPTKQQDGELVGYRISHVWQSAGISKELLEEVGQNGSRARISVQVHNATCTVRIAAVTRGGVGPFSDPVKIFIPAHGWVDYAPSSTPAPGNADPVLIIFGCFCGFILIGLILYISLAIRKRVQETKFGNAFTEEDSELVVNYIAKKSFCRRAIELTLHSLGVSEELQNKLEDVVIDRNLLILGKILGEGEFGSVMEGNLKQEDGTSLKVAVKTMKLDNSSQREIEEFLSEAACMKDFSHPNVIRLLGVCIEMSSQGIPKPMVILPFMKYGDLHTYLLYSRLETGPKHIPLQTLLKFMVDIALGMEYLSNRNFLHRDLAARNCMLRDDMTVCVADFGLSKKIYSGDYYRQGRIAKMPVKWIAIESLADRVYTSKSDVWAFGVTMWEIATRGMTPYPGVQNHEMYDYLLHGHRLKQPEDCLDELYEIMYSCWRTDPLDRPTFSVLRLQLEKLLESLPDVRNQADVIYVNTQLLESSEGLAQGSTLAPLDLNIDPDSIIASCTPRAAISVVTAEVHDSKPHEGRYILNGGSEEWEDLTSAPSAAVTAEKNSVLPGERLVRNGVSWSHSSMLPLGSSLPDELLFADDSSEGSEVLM
In words: Microfluidic capillary electrophoresis. Format: biochemical.

The target in the next data set is T2, Axl (Homo sapiens, UniProt P30530).
T2 sequence (P30530 26-894): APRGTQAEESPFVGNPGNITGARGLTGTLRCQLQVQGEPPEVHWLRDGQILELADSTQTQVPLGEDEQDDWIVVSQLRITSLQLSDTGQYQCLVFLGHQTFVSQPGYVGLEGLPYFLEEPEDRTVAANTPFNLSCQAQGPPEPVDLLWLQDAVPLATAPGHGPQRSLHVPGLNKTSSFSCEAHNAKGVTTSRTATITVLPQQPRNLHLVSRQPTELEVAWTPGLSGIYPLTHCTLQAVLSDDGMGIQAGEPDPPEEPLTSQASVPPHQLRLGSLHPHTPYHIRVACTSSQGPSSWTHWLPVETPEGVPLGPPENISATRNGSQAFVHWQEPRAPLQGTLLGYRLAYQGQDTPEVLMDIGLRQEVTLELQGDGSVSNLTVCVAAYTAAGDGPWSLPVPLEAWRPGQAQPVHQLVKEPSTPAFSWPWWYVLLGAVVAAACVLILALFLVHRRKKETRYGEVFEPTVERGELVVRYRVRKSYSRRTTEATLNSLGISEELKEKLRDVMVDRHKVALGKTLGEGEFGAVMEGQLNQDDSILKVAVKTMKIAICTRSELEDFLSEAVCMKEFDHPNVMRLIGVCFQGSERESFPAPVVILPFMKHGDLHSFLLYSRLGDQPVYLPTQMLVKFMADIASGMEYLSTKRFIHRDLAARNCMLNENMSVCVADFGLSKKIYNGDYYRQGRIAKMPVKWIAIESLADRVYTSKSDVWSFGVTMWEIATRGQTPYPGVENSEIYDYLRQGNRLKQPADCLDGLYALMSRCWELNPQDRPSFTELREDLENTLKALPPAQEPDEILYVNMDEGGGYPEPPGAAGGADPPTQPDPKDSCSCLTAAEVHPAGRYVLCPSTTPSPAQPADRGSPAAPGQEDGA
Nature of the data set: Microfluidic capillary electrophoresis. The format is biochemical.

In a further data set the target is T3, Tyro3 (Homo sapiens, UniProt Q06418).
T3 sequence (Q06418 41-890): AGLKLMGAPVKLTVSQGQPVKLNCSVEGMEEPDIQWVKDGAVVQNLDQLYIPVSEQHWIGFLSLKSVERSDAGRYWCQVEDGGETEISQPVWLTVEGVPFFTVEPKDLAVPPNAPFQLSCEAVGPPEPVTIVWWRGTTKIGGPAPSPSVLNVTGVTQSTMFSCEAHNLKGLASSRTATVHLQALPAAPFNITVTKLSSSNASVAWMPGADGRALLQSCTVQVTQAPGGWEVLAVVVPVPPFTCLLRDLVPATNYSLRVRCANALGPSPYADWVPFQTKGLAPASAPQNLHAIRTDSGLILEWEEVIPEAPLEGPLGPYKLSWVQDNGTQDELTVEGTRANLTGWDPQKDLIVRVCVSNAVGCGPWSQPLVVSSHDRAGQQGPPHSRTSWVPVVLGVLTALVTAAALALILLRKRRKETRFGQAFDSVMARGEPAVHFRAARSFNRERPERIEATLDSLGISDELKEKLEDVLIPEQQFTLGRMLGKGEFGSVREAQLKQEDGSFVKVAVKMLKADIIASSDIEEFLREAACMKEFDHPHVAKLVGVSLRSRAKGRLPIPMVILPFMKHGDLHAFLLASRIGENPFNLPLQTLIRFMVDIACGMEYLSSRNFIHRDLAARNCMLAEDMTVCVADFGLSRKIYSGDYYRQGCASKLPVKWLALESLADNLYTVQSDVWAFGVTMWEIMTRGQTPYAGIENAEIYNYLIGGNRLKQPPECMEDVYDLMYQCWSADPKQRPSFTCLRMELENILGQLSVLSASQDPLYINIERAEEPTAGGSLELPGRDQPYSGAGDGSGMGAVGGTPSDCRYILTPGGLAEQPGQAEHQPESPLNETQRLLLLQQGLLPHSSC
In words: Microfluidic capillary electrophoresis. The format is biochemical.

The subject of the next data set is A549 cells. In words: Soft agar colony formation assay, A549. Conditions: 2 weeks.
Another data set has as its system Colo699 cells. In words: Soft agar colony formation assay, Colo699. The conditions noted are these: 2 weeks.

Chain of hERG channel (Q12809 whole entry): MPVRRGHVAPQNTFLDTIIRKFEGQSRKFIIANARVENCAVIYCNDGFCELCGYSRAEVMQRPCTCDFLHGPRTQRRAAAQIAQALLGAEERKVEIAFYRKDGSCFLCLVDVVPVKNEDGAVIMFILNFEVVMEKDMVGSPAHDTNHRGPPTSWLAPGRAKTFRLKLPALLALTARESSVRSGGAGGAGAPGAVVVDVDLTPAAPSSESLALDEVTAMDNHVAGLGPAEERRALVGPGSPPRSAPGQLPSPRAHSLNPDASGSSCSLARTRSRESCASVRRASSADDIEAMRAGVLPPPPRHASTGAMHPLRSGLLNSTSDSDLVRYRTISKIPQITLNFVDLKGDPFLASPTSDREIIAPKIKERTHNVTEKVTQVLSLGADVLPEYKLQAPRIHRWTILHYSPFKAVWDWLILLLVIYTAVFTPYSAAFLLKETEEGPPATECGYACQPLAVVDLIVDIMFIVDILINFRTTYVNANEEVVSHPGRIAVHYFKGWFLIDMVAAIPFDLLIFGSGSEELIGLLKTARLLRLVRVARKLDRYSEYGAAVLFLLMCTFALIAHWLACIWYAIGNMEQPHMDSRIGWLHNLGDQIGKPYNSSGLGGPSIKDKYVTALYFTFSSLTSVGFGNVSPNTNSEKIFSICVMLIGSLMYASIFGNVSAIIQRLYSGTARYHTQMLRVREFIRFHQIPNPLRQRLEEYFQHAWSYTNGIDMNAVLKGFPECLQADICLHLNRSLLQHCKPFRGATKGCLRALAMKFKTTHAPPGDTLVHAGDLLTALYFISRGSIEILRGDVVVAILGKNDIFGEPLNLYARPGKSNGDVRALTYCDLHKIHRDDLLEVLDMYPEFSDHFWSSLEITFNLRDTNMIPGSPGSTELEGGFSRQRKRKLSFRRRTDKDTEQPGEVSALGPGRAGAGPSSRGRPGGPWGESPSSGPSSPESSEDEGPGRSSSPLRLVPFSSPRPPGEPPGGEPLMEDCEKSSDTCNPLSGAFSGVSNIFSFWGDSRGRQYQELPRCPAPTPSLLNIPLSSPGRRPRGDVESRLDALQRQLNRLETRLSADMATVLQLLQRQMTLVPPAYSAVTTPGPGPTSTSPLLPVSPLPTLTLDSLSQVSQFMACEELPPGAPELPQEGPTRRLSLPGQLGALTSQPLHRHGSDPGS

For `CCCCNc1ncc2c(-c3ccc(F)cc3)nn(CC3CCC(N)CC3)c2n1` (stereo not drawn) [UNC569], the EC50 on hERG channel was determined as 1700 nM.
In the case of `CCCCNc1ncc2c(-c3ccc(S(N)(=O)=O)cc3)nn([C@H]3CC[C@H](O)CC3)c2n1` [Compound 20, trans-4-(6-(Butylamino)-1-(4-hydroxycyclohexyl)-1H-pyrazolo[3,4-d]pyrimidin-3-yl)benzenesulfonamide], the IC50 against Mer came to 1.4 nM; against Axl, 29 nM; at Tyro3 it was 54 nM.
Turning to `CCCCNc1ncc2c(-c3ccc(S(=O)(=O)NC4CCOCC4)cc3)nn([C@H]3CC[C@H](O)CC3)c2n1` [Compound 26, trans-4-(6-(Butylamino)-1-(4-hydroxycyclohexyl)-1H-pyrazolo[3,4-d]pyrimidin-3-yl)-N-(tetrahydro-2H-pyran-4-yl)benzenesulfonamide], the IC50 against Axl is 69 nM; on Tyro3, 28 nM.
The like results for `CCCCNc1ncc2c(-c3ccc(S(=O)(=O)NC4CCCCC4)cc3)nn([C@H]3CC[C@H](O)CC3)c2n1` [Compound 25, trans-4-(6-(Butylamino)-1-(4-hydroxycyclohexyl)-1H-pyrazolo[3,4-d]pyrimidin-3-yl)-N-cyclohexylbenzenesulfonamide] were, in that order, 350 nM and 45 nM.
Turning to `CCCCNc1ncc2c(-c3ccc(S(=O)(=O)NCCC)cc3)nn([C@H]3CC[C@H](O)CC3)c2n1` [Compound 21, trans-4-(6-(Butylamino)-1-(4-hydroxycyclohexyl)-1H-pyrazolo[3,4-d]pyrimidin-3-yl)-N-propylbenzenesulfonamide], the IC50 against Axl was determined as 62 nM; at Tyro3, 35 nM.
Regarding `CCCCNc1ncc2c(-c3ccc(S(=O)(=O)N4CCCC4)cc3)nn([C@H]3CC[C@H](O)CC3)c2n1` [Compound 34, trans-4-(6-(Butylamino)-3-(4-(pyrrolidin-1-ylsulfonyl)phenyl)-1H-pyrazolo[3,4-d]pyrimidin-1-yl)cyclohexanol], the IC50 is 0.65 nM on Mer (read-out: IC50 Mer, ATP at Km, mean of two or more independent assays); 46 nM at Axl (read-out: IC50 Axl, ATP at Km, mean of two or more independent assays); 22 nM on Tyro3 (read-out: IC50 Tyro3, ATP at Km, mean of two or more independent assays).
As for `CCCCNc1ncc2c(-c3ccc(S(=O)(=O)NC)cc3)nn(C[C@H]3CC[C@H](O)CC3)c2n1` [Compound 7, 4-(1-((trans-4-Hydroxycyclohexyl)methyl)-6-(butylamino)-1H-pyrazolo[3,4-d]pyrimidin-3-yl)-N-methylbenzenesulfonamide], the figures for the IC50 on Axl and against Tyro3 were 140 nM and 130 nM, respectively.
The like results for `CCCCNc1ncc2c(-c3ccc(S(=O)(=O)Nc4ccc(F)cc4)cc3)nn([C@H]3CC[C@H](O)CC3)c2n1` [Compound 27, trans-4-(6-(Butylamino)-1-(4-hydroxycyclohexyl)-1H-pyrazolo[3,4-d]pyrimidin-3-yl)-N-(4-fluorophenyl)benzenesulfonamide] were, in that order, 6500 nM and 290 nM.
For the molecule `CCCCNc1ncc2c(-c3ccc(S(=O)(=O)NC4CCCC4)cc3)nn([C@H]3CC[C@H](O)CC3)c2n1` [Compound 24, trans-4-(6-(Butylamino)-1-(4-hydroxycyclohexyl)-1H-pyrazolo[3,4-d]pyrimidin-3-yl)-N-cyclopentylbenzenesulfonamide], the IC50 stood at 67 nM on Axl and 31 nM against Tyro3.
The like results for `CCCCNc1ncc2c(-c3ccc(S(=O)(=O)NC(C)C)cc3)nn([C@H]3CC[C@H](O)CC3)c2n1` [Compound 22, trans-4-(6-(Butylamino)-1-(4-hydroxycyclohexyl)-1H-pyrazolo[3,4-d]pyrimidin-3-yl)-N-isopropylbenzenesulfonamide] were, in that order, 120 nM and 68 nM.
On the same counts, the results for `CCCCNc1ncc2c(-c3ccc(S(=O)(=O)NC)cc3)nn(C[C@H]3CC[C@H](N)CC3)c2n1` [Compound 2, 4-(1-((trans-4-Aminocyclohexyl)methyl)-6-(butylamino)-1H-pyrazolo[3,4-d]pyrimidin-3-yl)-N-methylbenzenesulfonamide] are 59 nM and 27 nM.
Turning to `CCCCNc1ncc2c(-c3ccc(S(=O)(=O)N4CCC(C(=O)N5CCOCC5)CC4)cc3)nn([C@H]3CC[C@H](O)CC3)c2n1` [Compound 36, trans-(1-((4-(6-(Butylamino)-1-(4-hydroxycyclohexyl)-1H-pyrazolo[3,4-d]pyrimidin-3-yl)phenyl)sulfonyl)piperidin-4-yl)(morpholino)methanone], the figures for the IC50 against Mer, against Axl and against Tyro3 were 1.4 nM, 23 nM and 76 nM, respectively.
On to `CCCCNc1ncc2c(-c3ccc(S(=O)(=O)N4CCOCC4)cc3)nn([C@H]3CC[C@H](O)CC3)c2n1` [Compound 35, trans-4-(6-(Butylamino)-3-(4-(morpholinosulfonyl)phenyl)-1H-pyrazolo[3,4-d]pyrimidin-1-yl)cyclohexanol], for which the “colony formation in soft agar” value in the data set on A549 cells and with Colo699 cells was “inhibited colony formation” each time.
For the molecule `CCCCNc1ncc2c(-c3ccc(NS(C)(=O)=O)cc3)nn([C@H]3CC[C@H](O)CC3)c2n1` [Compound 18, trans-N-(4-(6-(Butylamino)-1-(4-hydroxycyclohexyl)-1H-pyrazolo[3,4-d]pyrimidin-3-yl)phenyl)methanesulfonamide], the IC50 amounted to 110 nM against Axl and 35 nM against Tyro3.
